Source: ChEMBL document CHEMBL4152232, “Design, synthesis and pharmacological evaluation of ALK and Hsp90 dual inhibitors bearing resorcinol and 2,4-diaminopyrimidine motifs” (Eur J Med Chem, 2018)
The source made the active and inactive calls. The rule behind the calls is not given here.

Legend:
[1] = tested on: NCI-H3122; assay: Antiproliferative activity against human NCI-H3122 cells after 72 hrs by SRB assay; type: functional, cell-based; settings: NCI-H3122, 72 h
[2] = target: ALK tyrosine kinase receptor (Homo sapiens, UniProt Q9UM73); assay: Inhibition of recombinant ALK (unknown origin) using poly (Glu,Tyr)4:1 as substrate after 60 mins by ELISA
[3] = target: Heat shock protein HSP 90-alpha (Homo sapiens, UniProt P07900); assay: Inhibition of FITC-labeled geldanamycin binding to recombinant HSP90alpha (unknown origin) after 1 hr by fluorescence polarization assay
[4] = tested on: EBC-1; assay: Antiproliferative activity against human EBC1 cells after 72 hrs by SRB assay; type: functional, cell-based; settings: EBC-1, 72 h
[5] = tested on: NCI-H460; assay: Antiproliferative activity against human NCI-H460 cells after 72 hrs by SRB assay; type: functional, cell-based; settings: NCI-H460, 72 h
[6] = Antiproliferative activity against human EBC1/SR cells after 72 hrs by SRB assay; type: functional, cell-based
[7] = tested on: BT-474; assay: Antiproliferative activity against human BT474 cells after 72 hrs by SRB assay; type: functional, cell-based; settings: BT-474, 72 h
[8] = target: ALK tyrosine kinase receptor (Homo sapiens, UniProt Q9UM73, G1202R); assay: Inhibition of ALK G1202R mutant (unknown origin) using poly (Glu,Tyr)4:1 as substrate after 60 mins by ELISA
[9] = target: ALK tyrosine kinase receptor (Homo sapiens, UniProt Q9UM73, L1196M); assay: Inhibition of ALK L1196M mutant (unknown origin) using poly (Glu,Tyr)4:1 as substrate after 60 mins by ELISA
[10] = tested on: U-87 MG; assay: Antiproliferative activity against human U87MG cells after 72 hrs by SRB assay; type: functional, cell-based, U-87MG ATCC
[11] = tested on: MDA-MB-231; assay: Antiproliferative activity against human MDA-MB-231 cells after 72 hrs by SRB assay; type: functional, cell-based; settings: MDA-MB-231, 72 h
[12] = tested on: A549; assay: Antiproliferative activity against human A549 cells after 72 hrs by SRB assay; type: functional, cell-based; settings: A549, 72 h
[13] = target: T1, Heat shock protein HSP90 (Homo sapiens) (UniProt P07900+P08238); assay: Inhibition of Hsp90 in human NCI-H3122 cells assessed as decrease in AKT phosphorylation at Ser473 residues up to 1000 nM after 24 hrs by Western blot analysis; type: cell-based
[14] = target: T1, Heat shock protein HSP90 (Homo sapiens); assay: Inhibition of Hsp90 in human NCI-H3122 cells assessed as upregulation of Hsp70 after 24 hrs by Western blot analysis; type: cell-based
[15] = tested on: HCT-116; assay: Antiproliferative activity against human HCT116 cells after 72 hrs by SRB assay; type: functional, cell-based; settings: HCT-116, 72 h
[16] = tested on: DU-145; assay: Antiproliferative activity against human DU145 cells after 72 hrs by SRB assay; type: functional, cell-based; settings: DU-145, 72 h
[17] = tested on: NCI-N87; assay: Antiproliferative activity against human NCI-N87 cells after 72 hrs by SRB assay; type: functional, cell-based; settings: NCI-N87, 72 h
[18] = target: T1, Heat shock protein HSP90 (Homo sapiens); assay: Inhibition of Hsp90 in human NCI-H3122 cells assessed as decrease in ERK1/2 phosphorylation up to 1000 nM after 24 hrs by Western blot analysis; type: cell-based
[19] = target: T1, Heat shock protein HSP90 (Homo sapiens); assay: Inhibition of Hsp90 in human NCI-H3122 cells assessed as decrease in ALK phosphorylation at Tyr1278 residues up to 1000 nM after 24 hrs by Western blot analysis; type: cell-based

ALK tyrosine kinase receptor (Homo sapiens, UniProt Q9UM73, L1196M), sequence (Q9UM73 19-1620 L1196M limits assumed): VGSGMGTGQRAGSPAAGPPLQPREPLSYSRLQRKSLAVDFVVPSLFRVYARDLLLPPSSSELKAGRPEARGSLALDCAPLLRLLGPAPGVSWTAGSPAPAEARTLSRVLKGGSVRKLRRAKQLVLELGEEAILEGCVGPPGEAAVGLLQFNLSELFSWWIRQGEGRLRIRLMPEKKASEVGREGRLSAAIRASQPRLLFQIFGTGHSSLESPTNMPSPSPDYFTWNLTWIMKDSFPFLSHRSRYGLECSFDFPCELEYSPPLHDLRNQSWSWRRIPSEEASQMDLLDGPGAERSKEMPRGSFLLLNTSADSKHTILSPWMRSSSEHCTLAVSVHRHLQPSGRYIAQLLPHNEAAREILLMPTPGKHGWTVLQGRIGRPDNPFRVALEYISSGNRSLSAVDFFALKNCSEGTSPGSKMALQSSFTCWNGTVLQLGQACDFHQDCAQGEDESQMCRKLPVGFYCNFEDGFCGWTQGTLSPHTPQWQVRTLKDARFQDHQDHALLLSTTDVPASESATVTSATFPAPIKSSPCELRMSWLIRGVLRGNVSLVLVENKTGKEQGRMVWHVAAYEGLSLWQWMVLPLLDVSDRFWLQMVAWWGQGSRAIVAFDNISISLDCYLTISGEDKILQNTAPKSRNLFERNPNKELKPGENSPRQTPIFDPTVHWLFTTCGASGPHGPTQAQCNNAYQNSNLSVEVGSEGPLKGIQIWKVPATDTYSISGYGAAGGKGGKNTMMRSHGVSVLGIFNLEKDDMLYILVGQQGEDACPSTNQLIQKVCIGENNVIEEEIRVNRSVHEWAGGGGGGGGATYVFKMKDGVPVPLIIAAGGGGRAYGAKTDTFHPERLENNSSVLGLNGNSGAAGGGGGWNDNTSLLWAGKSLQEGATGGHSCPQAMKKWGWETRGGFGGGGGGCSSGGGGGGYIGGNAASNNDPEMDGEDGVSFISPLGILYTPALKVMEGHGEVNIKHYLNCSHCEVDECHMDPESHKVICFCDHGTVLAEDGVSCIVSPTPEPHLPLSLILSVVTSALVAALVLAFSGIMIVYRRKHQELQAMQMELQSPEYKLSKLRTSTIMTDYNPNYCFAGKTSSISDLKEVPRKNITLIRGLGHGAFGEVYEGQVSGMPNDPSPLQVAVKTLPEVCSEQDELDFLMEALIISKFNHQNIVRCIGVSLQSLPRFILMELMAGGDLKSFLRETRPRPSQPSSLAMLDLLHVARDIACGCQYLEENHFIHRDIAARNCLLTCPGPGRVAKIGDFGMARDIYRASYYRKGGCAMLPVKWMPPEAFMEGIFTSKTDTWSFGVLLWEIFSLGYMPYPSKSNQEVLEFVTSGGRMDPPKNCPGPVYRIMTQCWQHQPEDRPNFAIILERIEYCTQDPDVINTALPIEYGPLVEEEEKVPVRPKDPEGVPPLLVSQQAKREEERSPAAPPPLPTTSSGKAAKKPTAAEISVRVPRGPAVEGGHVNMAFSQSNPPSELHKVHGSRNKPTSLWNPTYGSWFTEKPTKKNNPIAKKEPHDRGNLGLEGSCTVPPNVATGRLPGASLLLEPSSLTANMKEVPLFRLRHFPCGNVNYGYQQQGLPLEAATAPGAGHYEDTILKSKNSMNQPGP
ALK tyrosine kinase receptor (Homo sapiens, UniProt Q9UM73), sequence (Q9UM73 whole entry): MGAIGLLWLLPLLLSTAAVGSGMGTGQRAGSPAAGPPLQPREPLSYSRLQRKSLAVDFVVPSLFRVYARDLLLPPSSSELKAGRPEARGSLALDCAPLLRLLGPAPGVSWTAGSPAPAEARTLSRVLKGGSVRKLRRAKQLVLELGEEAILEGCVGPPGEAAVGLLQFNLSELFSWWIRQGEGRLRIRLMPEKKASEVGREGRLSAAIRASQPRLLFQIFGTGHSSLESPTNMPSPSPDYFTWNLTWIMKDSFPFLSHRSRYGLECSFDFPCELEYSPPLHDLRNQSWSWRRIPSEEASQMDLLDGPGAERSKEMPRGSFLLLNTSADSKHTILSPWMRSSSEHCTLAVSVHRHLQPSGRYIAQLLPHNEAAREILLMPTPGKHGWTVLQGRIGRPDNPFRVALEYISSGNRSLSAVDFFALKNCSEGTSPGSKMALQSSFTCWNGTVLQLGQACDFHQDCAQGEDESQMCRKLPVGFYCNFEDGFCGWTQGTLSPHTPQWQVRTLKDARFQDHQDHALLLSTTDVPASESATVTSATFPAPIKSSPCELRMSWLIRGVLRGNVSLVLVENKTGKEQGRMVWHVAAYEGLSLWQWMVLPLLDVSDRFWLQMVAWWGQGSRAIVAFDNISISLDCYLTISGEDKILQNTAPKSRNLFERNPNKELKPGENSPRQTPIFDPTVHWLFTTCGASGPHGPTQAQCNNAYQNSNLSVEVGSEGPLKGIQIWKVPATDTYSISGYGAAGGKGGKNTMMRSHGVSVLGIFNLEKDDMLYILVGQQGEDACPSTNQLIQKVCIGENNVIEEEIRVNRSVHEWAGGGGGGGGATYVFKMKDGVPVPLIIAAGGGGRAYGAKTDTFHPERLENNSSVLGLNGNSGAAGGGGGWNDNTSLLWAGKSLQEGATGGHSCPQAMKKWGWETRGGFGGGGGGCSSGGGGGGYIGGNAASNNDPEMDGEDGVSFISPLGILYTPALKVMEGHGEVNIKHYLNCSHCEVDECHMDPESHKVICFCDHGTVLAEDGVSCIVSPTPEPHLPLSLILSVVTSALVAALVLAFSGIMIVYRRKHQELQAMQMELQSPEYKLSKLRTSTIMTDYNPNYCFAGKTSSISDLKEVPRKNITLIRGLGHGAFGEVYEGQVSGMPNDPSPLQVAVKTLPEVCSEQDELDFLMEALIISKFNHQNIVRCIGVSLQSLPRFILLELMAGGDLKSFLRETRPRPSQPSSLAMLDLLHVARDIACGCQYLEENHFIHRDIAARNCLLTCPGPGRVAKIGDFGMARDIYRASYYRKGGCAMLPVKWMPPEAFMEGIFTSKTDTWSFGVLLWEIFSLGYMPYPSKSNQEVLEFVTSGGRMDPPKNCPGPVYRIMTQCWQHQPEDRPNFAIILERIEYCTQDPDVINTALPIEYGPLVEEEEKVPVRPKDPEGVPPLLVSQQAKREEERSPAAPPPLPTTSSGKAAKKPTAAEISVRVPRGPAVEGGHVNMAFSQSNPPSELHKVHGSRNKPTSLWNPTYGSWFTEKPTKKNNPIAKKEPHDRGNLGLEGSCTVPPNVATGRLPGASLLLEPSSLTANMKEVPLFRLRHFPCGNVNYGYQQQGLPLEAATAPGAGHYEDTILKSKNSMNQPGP
ALK tyrosine kinase receptor (Homo sapiens, UniProt Q9UM73, G1202R), sequence (Q9UM73 19-1620 G1202R limits assumed): as the sequence (Q9UM73 19-1620 L1196M limits assumed) above, with M1178L, G1184R counted along it

## CCNC(=O)c1noc(-c2cc(C(C)C)c(O)cc2O)c1-c1ccc(C(=O)N2CCN(CC(=O)Nc3cccc(Nc4ncc(Cl)c(Nc5ccccc5S(=O)(=O)C(C)C)n4)c3)CC2)cc1
[1]
  IC50: 113 nM
[2]
  IC50: 22.9 nM
[3]
  IC50: 123 nM

## CCNC(=O)c1noc(-c2cc(C(C)C)c(O)cc2O)c1-c1ccc(CN2CCN(CC(=O)Nc3ccc(OC)c(Nc4ncc(Cl)c(Nc5ccccc5S(=O)(=O)C(C)C)n4)c3)CC2)cc1
[4]
  IC50: 47 nM
[5]
  IC50: 235 nM
[6]
  IC50: 215 nM
[7]
  IC50: 52 nM
[8]
  IC50: 85.5 nM
[1]
  IC50: 11 nM
[9]
  IC50: 6.2 nM
[10]
  IC50: 237 nM
[2]
  IC50: 17.3 nM
[11]
  IC50: 104 nM
[12]
  IC50: 287 nM
[13]
  inhibition: Active
[14]
  inhibition: Dose-dependent effect
[15]
  IC50: 82 nM
[16]
  IC50: 228 nM
[17]
  IC50: 503 nM
[18]
  inhibition: Active
[3]
  IC50: 100 nM
[19]
  inhibition: Active

## CCNC(=O)c1noc(-c2cc(C(C)C)c(O)cc2O)c1-c1ccc(CNCC(=O)Nc2ccc(OC)c(Nc3ncc(Cl)c(Nc4ccccc4S(=O)(=O)C(C)C)n3)c2)cc1
[1]
  IC50: 57 nM
[2]
  IC50: 24.2 nM
[3]
  IC50: 260 nM

## CCNC(=O)c1noc(-c2cc(C(C)C)c(O)cc2O)c1-c1ccc(CN2CCOCC2)cc1 [LUMINESPIB]
[4]
  IC50: 13 nM
[5]
  IC50: 23 nM
[6]
  IC50: 30 nM
[7]
  IC50: 14 nM
[1]
  IC50: 12.4 nM
[10]
  IC50: 31 nM
[11]
  IC50: 21 nM
[12]
  IC50: 60 nM
[15]
  IC50: 16 nM
[16]
  IC50: 21 nM
[17]
  IC50: 83 nM

## CCNC(=O)c1noc(-c2cc(C(C)C)c(O)cc2O)c1-c1ccc(CNCC(=O)Nc2cccc(Nc3ncc(Cl)c(Nc4ccccc4S(=O)(=O)C(C)C)n3)c2)cc1
[1]
  IC50: 141 nM
[2]
  IC50: 10.3 nM
[3]
  IC50: 370 nM

## CCNC(=O)c1noc(-c2cc(C(C)C)c(O)cc2O)c1-c1ccc(C(=O)NCC(=O)Nc2ccc(OC)c(Nc3ncc(Cl)c(Nc4ccccc4S(=O)(=O)C(C)C)n3)c2)cc1
[1]
  IC50: 159 nM
[2]
  IC50: 83.2 nM
[3]
  IC50: > 1000 nM

## CCNC(=O)c1noc(-c2cc(C(C)C)c(O)cc2O)c1-c1ccc(CN2CCN(CC(=O)NCC(=O)Nc3ccc(OC)c(Nc4ncc(Cl)c(Nc5ccccc5S(=O)(=O)C(C)C)n4)c3)CC2)cc1
[4]
  IC50: 163 nM
[5]
  IC50: 624 nM
[6]
  IC50: 495 nM
[7]
  IC50: 60 nM
[8]
  IC50: 36.4 nM
[1]
  IC50: 46 nM
[9]
  IC50: 8.7 nM
[10]
  IC50: 205 nM
[2]
  IC50: 6.9 nM
[11]
  IC50: 135 nM
[12]
  IC50: 613 nM
[15]
  IC50: 193 nM
[16]
  IC50: 367 nM
[17]
  IC50: 230 nM
[3]
  IC50: 84.8 nM

## CC(C)c1cc(-c2onc(C(=O)NCC(=O)Nc3cccc(Nc4ncc(Cl)c(Nc5ccccc5S(=O)(=O)C(C)C)n4)c3)c2-c2ccc(CN3CCOCC3)cc2)c(O)cc1O
[1]
  IC50: 444 nM
[2]
  IC50: 53.7 nM
[3]
  IC50: > 1000 nM

## COc1ccc(Nc2ncc(Cl)c(Nc3ccccc3S(=O)(=O)C(C)C)n2)cc1NC(=O)CNC(=O)c1noc(-c2cc(C(C)C)c(O)cc2O)c1-c1ccc(CN2CCOCC2)cc1
[1]
  IC50: 319 nM
[2]
  IC50: 958 nM
[3]
  IC50: > 1000 nM

## COc1ccc(NC(=O)CNC(=O)CN2CCN(Cc3ccc4c(c3)CN(C(=O)c3cc(C(C)C)c(O)cc3O)C4)CC2)cc1Nc1ncc(Cl)c(Nc2ccccc2S(=O)(=O)C(C)C)n1
[1]
  IC50: 175 nM
[2]
  IC50: 4.1 nM
[3]
  IC50: 47 nM

## COc1ccc(NC(=O)CN2CCN(Cc3ccc4c(c3)CN(C(=O)c3cc(C(C)C)c(O)cc3O)C4)CC2)cc1Nc1ncc(Cl)c(Nc2ccccc2S(=O)(=O)C(C)C)n1
[1]
  IC50: 13 nM
[9]
  IC50: 6 nM
[2]
  IC50: 9.8 nM
[13]
  inhibition: Active
[14]
  inhibition: Dose-dependent effect
[18]
  inhibition: Active
[3]
  IC50: 40 nM
[19]
  inhibition: Active

## COc1ccc(NC(=O)CNC(=O)c2noc(-c3cc(C(C)C)c(O)cc3O)c2-c2ccc(CN3CCOCC3)cc2)cc1Nc1ncc(Cl)c(Nc2ccccc2S(=O)(=O)C(C)C)n1
[1]
  IC50: 587 nM
[2]
  IC50: 108 nM
[3]
  IC50: > 1000 nM

## CC(C)c1cc(C(=O)N2Cc3ccc(CN4CCN(C)CC4)cc3C2)c(O)cc1O [ONALESPIB]
[1]
  IC50: 52 nM
[3]
  IC50: 13.6 nM
